ChEMBL document CHEMBL5316328, “Discovery of AXL Degraders with Improved Potencies in Triple-Negative Breast Cancer (TNBC) Cells” (J Med Chem, 2023)

system: MDA-MB-453; assay: Antiproliferative activity against human MDA-MB-453 cells assessed as inhibition of cell growth incubated for 72 hrs by CCK8 assay; type: functional, cell-based; conditions: MDA-MB-453, 72 h

IC50	SMILES
> 5 µM	CCc1ccc2c(c1)c(=O)c(C(=O)Nc1ccc(Oc3ncnc4cc(OCCCCCC(=O)Nc5ccc6c(c5)CN(C5CCC(=O)N(C)C5=O)C6=O)c(OC)cc34)c(F)c1)c(C)n2C (centres undefined)

molecular target: Protein cereblon/Tyrosine-protein kinase receptor UFO (Homo sapiens, UniProt P30530+Q96SW2); assay: PROTAC activity at CRBN/AXL in human MDA-MB-231 cells assessed as induction of AXL degradation incubated for 24 hrs by immunoblot analysis; type: cell-based; conditions: not given
Sequence (P30530 whole entry): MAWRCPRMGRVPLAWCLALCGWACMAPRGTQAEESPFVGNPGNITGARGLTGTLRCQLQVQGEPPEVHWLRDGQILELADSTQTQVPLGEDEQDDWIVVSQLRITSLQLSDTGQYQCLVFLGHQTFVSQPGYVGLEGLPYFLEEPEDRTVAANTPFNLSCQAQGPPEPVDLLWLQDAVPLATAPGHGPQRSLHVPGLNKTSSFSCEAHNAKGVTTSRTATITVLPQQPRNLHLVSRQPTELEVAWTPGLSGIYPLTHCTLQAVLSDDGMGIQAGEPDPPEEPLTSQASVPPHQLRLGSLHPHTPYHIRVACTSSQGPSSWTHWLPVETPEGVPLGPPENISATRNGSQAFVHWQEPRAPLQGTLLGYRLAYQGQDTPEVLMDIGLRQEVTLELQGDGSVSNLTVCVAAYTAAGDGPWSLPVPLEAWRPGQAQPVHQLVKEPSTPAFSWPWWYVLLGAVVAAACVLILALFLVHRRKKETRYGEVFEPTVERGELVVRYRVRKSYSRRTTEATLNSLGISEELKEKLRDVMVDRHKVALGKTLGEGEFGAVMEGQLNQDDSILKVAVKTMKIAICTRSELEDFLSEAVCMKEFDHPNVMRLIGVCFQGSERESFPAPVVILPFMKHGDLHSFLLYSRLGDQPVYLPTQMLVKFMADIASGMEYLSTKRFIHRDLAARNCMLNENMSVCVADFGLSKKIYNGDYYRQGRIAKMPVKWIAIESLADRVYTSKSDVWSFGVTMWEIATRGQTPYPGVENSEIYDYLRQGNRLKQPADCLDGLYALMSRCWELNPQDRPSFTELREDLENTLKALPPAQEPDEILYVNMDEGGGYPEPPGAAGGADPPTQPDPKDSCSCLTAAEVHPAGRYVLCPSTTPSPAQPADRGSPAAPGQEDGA
Sequence (Q96SW2 whole entry): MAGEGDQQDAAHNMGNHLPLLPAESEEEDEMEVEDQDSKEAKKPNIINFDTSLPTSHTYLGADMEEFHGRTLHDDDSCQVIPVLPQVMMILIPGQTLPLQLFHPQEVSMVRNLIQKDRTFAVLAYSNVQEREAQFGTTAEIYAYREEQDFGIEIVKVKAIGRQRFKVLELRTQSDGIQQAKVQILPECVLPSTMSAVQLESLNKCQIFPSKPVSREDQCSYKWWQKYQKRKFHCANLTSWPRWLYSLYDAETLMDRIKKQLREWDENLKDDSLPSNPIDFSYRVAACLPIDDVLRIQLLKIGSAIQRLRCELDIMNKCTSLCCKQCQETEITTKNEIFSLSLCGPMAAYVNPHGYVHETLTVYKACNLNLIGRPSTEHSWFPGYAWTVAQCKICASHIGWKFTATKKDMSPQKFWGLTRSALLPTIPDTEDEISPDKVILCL

EC50	SMILES
> 10 µM	CCc1ccc2c(c1)c(=O)c(C(=O)Nc1ccc(Oc3ncnc4cc(OCCCCCC(=O)Nc5cccc6c5CN(C5CCC(=O)NC5=O)C6=O)c(OC)cc34)c(F)c1)c(C)n2C (centres undefined)
> 10 µM	CCc1ccc2c(c1)c(=O)c(C(=O)Nc1ccc(Oc3ncnc4cc(OCCCCCCCCCCCC(=O)Nc5cccc6c5C(=O)N(C5CCC(=O)NC5=O)C6=O)c(OC)cc34)c(F)c1)c(C)n2C (centres undefined)
> 10 µM	CCc1ccc2c(c1)c(=O)c(C(=O)Nc1ccc(Oc3ncnc4cc(OCCCCCC(=O)Nc5cccc6c5C(=O)N(C5CCC(=O)NC5=O)C6)c(OC)cc34)c(F)c1)c(C)n2C (centres undefined)
> 10 µM	CCc1ccc2c(c1)c(=O)c(C(=O)Nc1ccc(Oc3ncnc4cc(OCC(=O)Nc5ccc6c(c5)C(=O)N(C5CCC(=O)NC5=O)C6=O)c(OC)cc34)c(F)c1)c(C)n2C (centres undefined)
0.04 µM	CCc1ccc2c(c1)c(=O)c(C(=O)Nc1ccc(Oc3ncnc4cc(OCCCCCC(=O)Nc5ccc6c(c5)C(=O)N(C5CCC(=O)NC5=O)C6=O)c(OC)cc34)c(F)c1)c(C)n2C (centres undefined)
> 10 µM	CCc1ccc2c(c1)c(=O)c(C(=O)Nc1ccc(Oc3ncnc4cc(OCCCCCCCCCCCC(=O)Nc5ccc6c(c5)C(=O)N(C5CCC(=O)NC5=O)C6=O)c(OC)cc34)c(F)c1)c(C)n2C (centres undefined)
> 10 µM	CCc1ccc2c(c1)c(=O)c(C(=O)Nc1ccc(Oc3ncnc4cc(OCCCCCCCCCC(=O)Nc5cccc6c5C(=O)N(C5CCC(=O)NC5=O)C6=O)c(OC)cc34)c(F)c1)c(C)n2C (centres undefined)
> 10 µM	CCc1ccc2c(c1)c(=O)c(C(=O)Nc1ccc(Oc3ncnc4cc(OCCCCCCCCCC(=O)Nc5ccc6c(c5)C(=O)N(C5CCC(=O)NC5=O)C6=O)c(OC)cc34)c(F)c1)c(C)n2C (centres undefined)
> 10 µM	CCc1ccc2c(c1)c(=O)c(C(=O)Nc1ccc(Oc3ncnc4cc(OCC(=O)Nc5cccc6c5C(=O)N(C5CCC(=O)NC5=O)C6=O)c(OC)cc34)c(F)c1)c(C)n2C (centres undefined)
> 10 µM	CCc1ccc2c(c1)c(=O)c(C(=O)Nc1ccc(Oc3ncnc4cc(OCCCCCC(=O)Nc5cccc6c5C(=O)N(C5CCC(=O)NC5=O)C6=O)c(OC)cc34)c(F)c1)c(C)n2C (centres undefined)
> 10 µM	CCc1ccc2c(c1)c(=O)c(C(=O)Nc1ccc(Oc3ncnc4cc(OCCCCCC(=O)Nc5ccc6c(c5)C(=O)N(C5CCC(=O)NC5=O)C6)c(OC)cc34)c(F)c1)c(C)n2C (centres undefined)
> 10 µM	CCc1ccc2c(c1)c(=O)c(C(=O)Nc1ccc(Oc3ncnc4cc(OCCCCC(=O)Nc5cccc6c5C(=O)N(C5CCC(=O)NC5=O)C6=O)c(OC)cc34)c(F)c1)c(C)n2C (centres undefined)
0.108 µM	CCc1ccc2c(c1)c(=O)c(C(=O)Nc1ccc(Oc3ncnc4cc(OCCCCCCCC(=O)Nc5ccc6c(c5)C(=O)N(C5CCC(=O)NC5=O)C6=O)c(OC)cc34)c(F)c1)c(C)n2C (centres undefined)
> 10 µM	CCc1ccc2c(c1)c(=O)c(C(=O)Nc1ccc(Oc3ncnc4cc(OCCCCCCCC(=O)Nc5cccc6c5C(=O)N(C5CCC(=O)NC5=O)C6=O)c(OC)cc34)c(F)c1)c(C)n2C (centres undefined)
> 10 µM	CCc1ccc2c(c1)c(=O)c(C(=O)Nc1ccc(Oc3ncnc4cc(OCCCCC(=O)Nc5ccc6c(c5)C(=O)N(C5CCC(=O)NC5=O)C6=O)c(OC)cc34)c(F)c1)c(C)n2C (centres undefined)

system: MDA-MB-436; assay: Antiproliferative activity against human MDA-MB-436 cells expressing AXL assessed as inhibition of cell growth incubated for 72 hrs by CCK8 assay; type: functional, cell-based; conditions: MDA-MB-436, 72 h

IC50	SMILES
> 5 µM	CCc1ccc2c(c1)c(=O)c(C(=O)Nc1ccc(Oc3ncnc4cc(OCCCCCC(=O)Nc5ccc6c(c5)CN(C5CCC(=O)N(C)C5=O)C6=O)c(OC)cc34)c(F)c1)c(C)n2C (centres undefined)

molecular target: von Hippel-Lindau disease tumor suppressor/Tyrosine-protein kinase receptor UFO (Homo sapiens, UniProt P30530+P40337); assay: PROTAC activity at VHL/AXL in human MDA-MB-231 cells assessed as induction of AXL degradation incubated for 24 hrs by immunoblot analysis; type: cell-based; conditions: not given
Sequence (P30530 whole entry): as the sequence (P30530 whole entry) above
Sequence (P40337 whole entry): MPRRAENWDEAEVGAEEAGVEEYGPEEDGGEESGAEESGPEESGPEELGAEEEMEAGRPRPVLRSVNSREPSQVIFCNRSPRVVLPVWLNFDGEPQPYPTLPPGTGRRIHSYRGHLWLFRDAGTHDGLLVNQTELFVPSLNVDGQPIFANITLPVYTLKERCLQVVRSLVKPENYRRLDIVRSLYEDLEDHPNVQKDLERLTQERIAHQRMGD

EC50	SMILES
> 10 µM	CCc1ccc2c(c1)c(=O)c(C(=O)Nc1ccc(Oc3ncnc4cc(OCCCCCCCC(=O)N[C@H](C(=O)N5C[C@H](O)C[C@H]5C(=O)NCc5ccc(-c6scnc6C)cc5)C(C)(C)C)c(OC)cc34)c(F)c1)c(C)n2C
> 10 µM	CCc1ccc2c(c1)c(=O)c(C(=O)Nc1ccc(Oc3ncnc4cc(OCCCCCCCCCCCC(=O)N[C@H](C(=O)N5C[C@H](O)C[C@H]5C(=O)NCc5ccc(-c6scnc6C)cc5)C(C)(C)C)c(OC)cc34)c(F)c1)c(C)n2C
> 10 µM	CCc1ccc2c(c1)c(=O)c(C(=O)Nc1ccc(Oc3ncnc4cc(OCCCCCCCCCC(=O)N[C@H](C(=O)N5C[C@H](O)C[C@H]5C(=O)NCc5ccc(-c6scnc6C)cc5)C(C)(C)C)c(OC)cc34)c(F)c1)c(C)n2C
> 10 µM	CCc1ccc2c(c1)c(=O)c(C(=O)Nc1ccc(Oc3ncnc4cc(OCCCCCC(=O)N[C@H](C(=O)N5C[C@H](O)C[C@H]5C(=O)NCc5ccc(-c6scnc6C)cc5)C(C)(C)C)c(OC)cc34)c(F)c1)c(C)n2C
> 10 µM	CCc1ccc2c(c1)c(=O)c(C(=O)Nc1ccc(Oc3ncnc4cc(OCC(=O)N[C@H](C(=O)N5C[C@H](O)C[C@H]5C(=O)NCc5ccc(-c6scnc6C)cc5)C(C)(C)C)c(OC)cc34)c(F)c1)c(C)n2C
> 10 µM	CCc1ccc2c(c1)c(=O)c(C(=O)Nc1ccc(Oc3ncnc4cc(OCCCC(=O)N[C@H](C(=O)N5C[C@H](O)C[C@H]5C(=O)NCc5ccc(-c6scnc6C)cc5)C(C)(C)C)c(OC)cc34)c(F)c1)c(C)n2C

system: MDA-MB-231; assay: Antiproliferative activity against human MDA-MB-231 cells expressing AXL assessed as inhibition of cell growth incubated for 72 hrs by CCK8 assay; type: functional, cell-based; conditions: MDA-MB-231, 72 h

IC50	SMILES
> 5 µM	CCc1ccc2c(c1)c(=O)c(C(=O)Nc1ccc(Oc3ncnc4cc(OCCCCCC(=O)Nc5ccc6c(c5)CN(C5CCC(=O)N(C)C5=O)C6=O)c(OC)cc34)c(F)c1)c(C)n2C (centres undefined)
